From patent publication US7053177B1, “Random peptides that bind to gastro-intestinal tract (GIT) transport receptors and related methods” (Cytogen Corporation, priority 1997, dated 2006)
Ends that are not written are not given here. Peptide text beside a SMILES is read from it. * marks the point of attachment. Dansyl = CN(C)c1cccc2c(S(=O)(=O)*)cccc12; K(dns) = dansyl-lysine

System: P100 membrane fraction of Caco-2 cells
Test: Dansylated peptide ELISA: relative binding of PAX2 and HAX42 peptides to P100 fractions (ratio to ZElan021)
Settings: ratio to ZElan021 = 1.00
Protocol: The peptides and proteins were analyzed by a dansylated peptide ELISA method in which 96 well plates were coated overnight at 4° C. with 100 μl/well coating protein (normally 100 μg/ml P100 membrane fraction) in 0.05M carbonate buffer pH9.6. Nonspecific binding was blocked using 200 μl/well, 2% Marvel/PBS for 2 hours at 37° C. prior to incubation with dansylated peptides. The plates were washed three times with PBS/0.05% Tween 20 and after each subsequent incubation step. […] A buffer blank control was included to ensure that background binding to plastic was not due to the antibodies used in the assay system. […] Plates were developed using 75 μl/well Bionostics TMB substrate and incubated for approximately 10 minutes. The developing reaction was stopped using Bionostics Red Stop solution (25 μl/well), and the optical density of the plates was read at 650 nm. […]

CC(C)C[C@H](NC(=O)[C@H](CCCNC(=N)N)NC(=O)[C@H](CCCNC(=N)N)NC(=O)[C@H](CC(N)=O)NC(=O)[C@H](Cc1c[nH]cn1)NC(=O)[C@H](CO)NC(=O)[C@H](CO)NC(=O)[C@H](Cc1c[nH]cn1)NC(=O)[C@H](CCCCN)NC(=O)[C@H](C)NC(=O)[C@H](CC(N)=O)NC(=O)[C@@H](NC(=O)[C@@H](N)CCCCNS(=O)(=O)c1cccc2c(N(C)C)cccc12)[C@@H](C)O)C(=O)N[C@@H](CCCNC(=N)N)C(=O)N[C@H](C(=O)N[C@@H](CCCNC(=N)N)C(N)=O)[C@@H](C)O [ZElan033] (H-K(Dansyl)TNAKHSSHNRRLRTR-NH2)
Binding value at 20 μg/ml (PAX2 peptides, first column): 0.35 | Binding value at 50 μg/ml (PAX2 peptides, first column): 0.80 | Binding value at 50 μg/ml (PAX2 peptides, second column): 0.66

CC(C)C[C@H](NC(=O)[C@H](CCCNC(=N)N)NC(=O)[C@H](CCCNC(=N)N)NC(=O)[C@@H](N)CCCCNS(=O)(=O)c1cccc2c(N(C)C)cccc12)C(=O)N[C@@H](CCCNC(=N)N)C(=O)N[C@H](C(=O)N[C@@H](CCCNC(=N)N)C(N)=O)[C@@H](C)O [ZElan058, H2N-K(dns)RRLRTR-CONH2] (H-K(Dansyl)RRLRTR-NH2)
Binding value at 20 μg/ml (PAX2 peptides, first column): 0.05 | Binding value at 50 μg/ml (PAX2 peptides, first column): 0.47 | Binding value at 50 μg/ml (PAX2 peptides, second column): 0.16

CC(C)[C@H](NC(=O)[C@H](CCCCN)NC(=O)[C@H](CCCNC(=N)N)NC(=O)[C@@H](N)CCCCNS(=O)(=O)c1cccc2c(N(C)C)cccc12)C(=O)N[C@@H](Cc1ccccc1)C(=O)N[C@@H](CC(N)=O)C(=O)N[C@@H](CCCNC(=N)N)C(=O)N[C@@H](CCCNC(=N)N)C(=O)N[C@@H](CCCNC(=N)N)C(=O)N1CCC[C@H]1C(=O)N[C@@H](CO)C(N)=O [ZElan065] (H-K(Dansyl)RKVFNRRRPS-NH2)
Binding value at 20 μg/ml (HAX42 peptides): 0.00 | Binding value at 50 μg/ml (HAX42 peptides, first column): 0.54 | Binding value at 50 μg/ml (HAX42 peptides, second column): 0.30

K(Dansyl)GRNHDVVSSNTHKSYRSPRSASYPRLSNDRTDRTEPAPSS-NH2 [ZElan083]
Binding value at 20 μg/ml (PAX2 peptides, first column): 0.43 | Binding value at 20 μg/ml (PAX2 peptides, second column): 0.63 | Binding value at 50 μg/ml (PAX2 peptides, second column): 0.88

H2N—K(dns)SDHALGTNLRSDNAK ({K(dns)}-SDHALGTNLRSDNAK; not fully specified (C-terminus); printed as H2N—K(dns)SDHALGTNLRSDNAK) [ZElan089]
Binding value at 25 μg/ml (HAX42 peptides, first column): 0.55 | Binding value at 25 μg/ml (HAX42 peptides, second column): 0.44 | Binding value at 25 μg/ml (HAX42 peptides, third column): 0.49

CC(C)C[C@H](NC(=O)[C@H](CCCNC(=N)N)NC(=O)[C@H](CCCNC(=N)N)NC(=O)[C@H](CC(N)=O)NC(=O)[C@H](Cc1c[nH]cn1)NC(=O)[C@H](CO)NC(=O)[C@H](CO)NC(=O)[C@@H](N)CCCCNS(=O)(=O)c1cccc2c(N(C)C)cccc12)C(=O)N[C@@H](C)C(=O)N[C@H](C(=O)N[C@@H](CCCNC(=N)N)C(N)=O)[C@@H](C)O [ZElan080] (H-K(Dansyl)SSHNRRLATR-NH2)
Binding value at 20 μg/ml (PAX2 peptides, first column): 0.23 | Binding value at 50 μg/ml (Jackson Ab) (PAX2 peptides): 0.67 | Binding value at 50 μg/ml (Southern Ab) (PAX2 peptides): 0.38 | Binding value at 50 μg/ml (PAX2 peptides, first column): 0.84 | Binding value at 50 μg/ml (PAX2 peptides, second column): 0.45

H2N—K(dns)PGDYNCCGNG ({K(dns)}-PGDYNCCGNG-NH2; cysteine pairing not given here) [ZElan092]
Binding value at 25 μg/ml (HAX42 peptides, first column): 1.41 | Binding value at 25 μg/ml (HAX42 peptides, second column): 1.90 | Binding value at 25 μg/ml (HAX42 peptides, third column): 0.91

CC(C)C[C@H](NC(=O)[C@H](CCCNC(=N)N)NC(=O)[C@H](CCCNC(=N)N)NC(=O)[C@H](C)NC(=O)[C@H](Cc1c[nH]cn1)NC(=O)[C@H](CO)NC(=O)[C@H](CO)NC(=O)[C@@H](N)CCCCNS(=O)(=O)c1cccc2c(N(C)C)cccc12)C(=O)N[C@@H](CCCNC(=N)N)C(=O)N[C@H](C(=O)N[C@@H](CCCNC(=N)N)C(N)=O)[C@@H](C)O [ZElan076] (H-K(Dansyl)SSHARRLRTR-NH2)
Binding value at 20 μg/ml (PAX2 peptides, first column): 0.08 | Binding value at 50 μg/ml (Jackson Ab) (PAX2 peptides): 0.60 | Binding value at 50 μg/ml (Southern Ab) (PAX2 peptides): 0.42 | Binding value at 50 μg/ml (PAX2 peptides, first column): 1.00 | Binding value at 50 μg/ml (PAX2 peptides, second column): 0.41

CC(C)C[C@H](NC(=O)[C@H](CCCNC(=N)N)NC(=O)[C@H](CCCNC(=N)N)NC(=O)[C@H](CC(N)=O)NC(=O)[C@H](Cc1c[nH]cn1)NC(=O)[C@H](CO)NC(=O)[C@H](CO)NC(=O)[C@@H](N)CCCCNS(=O)(=O)c1cccc2c(N(C)C)cccc12)C(=O)N[C@@H](CCCNC(=N)N)C(=O)N[C@@H](C)C(=O)N[C@@H](CCCNC(=N)N)C(N)=O [ZElan081] (H-K(Dansyl)SSHNRRLRAR-NH2)
Binding value at 20 μg/ml (PAX2 peptides, first column): 0.01 | Binding value at 50 μg/ml (PAX2 peptides, first column): 0.89 | Binding value at 50 μg/ml (PAX2 peptides, second column): 0.47

CC(C)C[C@H](NC(=O)[C@H](C)NC(=O)[C@H](Cc1c[nH]cn1)NC(=O)[C@H](CC(=O)O)NC(=O)[C@H](CO)NC(=O)[C@@H](N)CCCCNS(=O)(=O)c1cccc2c(N(C)C)cccc12)C(=O)NCC(=O)N[C@H](C(=O)N[C@@H](CC(N)=O)C(=O)N[C@@H](CC(C)C)C(=O)N[C@@H](CCCNC(=N)N)C(=O)N[C@@H](CO)C(=O)N[C@@H](CC(=O)O)C(=O)N[C@@H](CC(N)=O)C(=O)N[C@@H](C)C(=O)N[C@@H](CCCCN)C(=O)N[C@@H](CCC(=O)O)C(=O)N1CCC[C@H]1C(=O)NCC(N)=O)[C@@H](C)O [ZElan062] (H-K(Dansyl)SDHALGTNLRSDNAKEPG-NH2)
Binding value at 20 μg/ml (HAX42 peptides): 0.11 | Binding value at 50 μg/ml (HAX42 peptides, first column): 0.42 | Binding value at 50 μg/ml (HAX42 peptides, second column): 0.34

CC[C@H](C)[C@H](NC(=O)[C@H](C)NC(=O)[C@H](CO)NC(=O)[C@@H]1CCCN1C(=O)[C@H](CCCNC(=N)N)NC(=O)[C@H](CCCNC(=N)N)NC(=O)[C@H](CCCNC(=N)N)NC(=O)[C@H](CC(N)=O)NC(=O)[C@H](Cc1ccccc1)NC(=O)[C@@H](NC(=O)[C@H](CCCCN)NC(=O)[C@H](CCCNC(=N)N)NC(=O)CNC(=O)[C@@H](NC(=O)[C@H](CO)NC(=O)[C@H](CC(N)=O)NC(=O)CNC(=O)[C@H](CC(N)=O)NC(=O)CNC(=O)[C@H](CS)NC(=O)[C@H](CS)NC(=O)[C@H](CC(N)=O)NC(=O)[C@H](Cc1ccc(O)cc1)NC(=O)[C@H](CC(=O)O)NC(=O)CNC(=O)[C@@H](N)CCCCNS(=O)(=O)c1cccc2c(N(C)C)cccc12)[C@@H](C)O)C(C)C)C(=O)N1CCC[C@H]1C(=O)N[C@H](C(N)=O)[C@@H](C)O [ZElan061] (H-K(Dansyl)GDYNCCGNGNSTGRKVFNRRRPSAIPT-NH2)
Binding value at 20 μg/ml (HAX42 peptides): 0.20 | Binding value at 50 μg/ml (HAX42 peptides, first column): 0.60 | Binding value at 50 μg/ml (HAX42 peptides, second column): 0.38

CC(C)C[C@H](NC(=O)[C@H](CCCNC(=N)N)NC(=O)[C@H](CCCNC(=N)N)NC(=O)[C@@H](N)CCCCNS(=O)(=O)c1cccc2c(N(C)C)cccc12)C(=O)N[C@@H](CCCNC(=N)N)C(=O)N[C@H](C(=O)N[C@@H](CCCNC(=N)N)C(=O)N[C@@H](CO)C(=O)N[C@@H](CCCNC(=N)N)C(N)=O)[C@@H](C)O [ZElan057] (H-K(Dansyl)RRLRTRSR-NH2)
Binding value at 20 μg/ml (PAX2 peptides, first column): 0.08 | Binding value at 50 μg/ml (PAX2 peptides, first column): 0.56 | Binding value at 50 μg/ml (PAX2 peptides, second column): 0.25

CC(C)C[C@H](NC(=O)[C@H](C)NC(=O)[C@H](Cc1c[nH]cn1)NC(=O)[C@H](CC(=O)O)NC(=O)[C@H](CO)NC(=O)[C@@H](N)CCCCNS(=O)(=O)c1cccc2c(N(C)C)cccc12)C(=O)NCC(=O)N[C@H](C(=O)N[C@@H](CC(N)=O)C(=O)N[C@@H](CC(C)C)C(=O)N[C@@H](CCCNC(=N)N)C(=O)N[C@@H](CO)C(=O)N[C@@H](CC(=O)O)C(=O)N[C@@H](CC(N)=O)C(=O)N[C@@H](C)C(=O)N[C@@H](CCCCN)C(=O)N[C@@H](CCC(=O)O)C(=O)N1CCC[C@H]1C(=O)NCC(=O)N[C@@H](CC(=O)O)C(=O)N[C@@H](Cc1ccc(O)cc1)C(=O)N[C@@H](CC(N)=O)C(=O)N[C@@H](CS)C(=O)N[C@@H](CS)C(=O)NCC(=O)N[C@@H](CC(N)=O)C(=O)NCC(=O)N[C@@H](CC(N)=O)C(=O)N[C@@H](CO)C(=O)N[C@H](C(N)=O)[C@@H](C)O)[C@@H](C)O [ZElan070] (H-K(Dansyl)SDHALGTNLRSDNAKEPGDYNCCGNGNST-NH2)
Binding value at 20 μg/ml (HAX42 peptides): 0.59 | Binding value at 50 μg/ml (HAX42 peptides, first column): 0.97 | Binding value at 50 μg/ml (HAX42 peptides, second column): 0.39

C[C@H](NC(=O)[C@H](CC(N)=O)NC(=O)[C@@H](NC(=O)[C@@H](N)CCCCNS(=O)(=O)c1cccc2c(N(C)C)cccc12)[C@@H](C)O)C(=O)N[C@@H](CCCCN)C(=O)N[C@@H](Cc1c[nH]cn1)C(=O)N[C@@H](CO)C(=O)N[C@@H](CO)C(=O)N[C@@H](Cc1c[nH]cn1)C(=O)N[C@@H](CC(N)=O)C(N)=O [ZElan055] (H-K(Dansyl)TNAKHSSHN-NH2)
Binding value at 20 μg/ml (PAX2 peptides, first column): 0.99 | Binding value at 20 μg/ml (PAX2 peptides, second column): 0.73 | Binding value at 50 μg/ml (PAX2 peptides, first column): 1.10 | Binding value at 50 μg/ml (PAX2 peptides, second column): 0.59

H2N-K(dns)SDHALGTNLRSDNAKEPGDYNCCGNG-CONH2 ({K(dns)}-SDHALGTNLRSDNAKEPGDYNCCGNG-NH2; cysteine pairing not given here) [ZElan06O]
Binding value at 20 μg/ml (HAX42 peptides): 0.44 | Binding value at 50 μg/ml (HAX42 peptides, first column): 0.56 | Binding value at 50 μg/ml (HAX42 peptides, second column): 0.43
